Each block holds one compound with its values, some of them ahead of it.
Assays:
NirBac1.1 = target: T1, NirBac1.1 (Anaeromyxobacter dehalogenans, UniProt Q2IH88); experiment: […]+ uptake into proteoliposomes; type: biochemical; conditions: POPG as part of liposome lipid, 25% vs 50% of total; Na+ driven; activator
T1 sequence (Q2IH88 1-305): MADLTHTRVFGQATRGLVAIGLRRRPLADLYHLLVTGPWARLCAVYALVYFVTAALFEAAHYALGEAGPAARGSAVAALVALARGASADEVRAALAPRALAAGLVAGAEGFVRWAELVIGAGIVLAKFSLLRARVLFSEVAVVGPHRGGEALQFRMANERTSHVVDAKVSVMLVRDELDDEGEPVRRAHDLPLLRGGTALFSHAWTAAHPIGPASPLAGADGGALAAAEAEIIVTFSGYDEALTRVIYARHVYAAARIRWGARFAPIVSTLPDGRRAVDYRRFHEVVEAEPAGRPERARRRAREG

NirBac1.2 = target: T2, NirBac1.2 (Anaeromyxobacter sp. Fw109-5, UniProt A7HIG5); experiment: […]+ uptake into proteoliposomes; type: biochemical; conditions: POPG as part of liposome lipid, 25% vs 50% of total; Na+ driven; activator
T2 sequence (A7HIG5 1-299): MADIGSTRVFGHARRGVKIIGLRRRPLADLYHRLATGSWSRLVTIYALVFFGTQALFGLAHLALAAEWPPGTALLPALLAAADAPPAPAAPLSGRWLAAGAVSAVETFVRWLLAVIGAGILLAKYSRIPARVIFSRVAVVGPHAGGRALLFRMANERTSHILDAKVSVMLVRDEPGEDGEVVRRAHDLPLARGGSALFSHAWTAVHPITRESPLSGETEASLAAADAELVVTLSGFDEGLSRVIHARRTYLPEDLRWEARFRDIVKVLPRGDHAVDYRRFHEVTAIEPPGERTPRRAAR

[1] = target: NirBac1.2 (Anaeromyxobacter sp. Fw109-5); experiment: SEC + native gel or EMSA; purified channel in detergent, non-denaturing conditions; Superdex200; oligomeric state (Supplementary Figure S2B,C)
[2] = target: NirBac1.1 (Anaeromyxobacter dehalogenans 2CP-C); experiment: as above

Compound: CCCCCCCC/C=C\CCCCCCCC(=O)O[C@H](COC(=O)CCCCCCCCCCCCCCC)COP(=O)(O)OCC(O)CO (stereo partly shown) [POPG]
- fold flux increase, 25% to 50% POPG (NirBac1.1): > 5 fold
- fold flux increase, 25% to 50% POPG (NirBac1.2): > 5 fold

- stoichiometry N [1]: 4
Compound: NirBac1.2 (natural protein)

- stoichiometry N [2]: 4
Compound: NirBac1.1 (natural protein)

Reference: article PMC4607889, “Modular Design of the Selectivity Filter Pore Loop in a Novel Family of Prokaryotic ‘Inward Rectifier’ (NirBac) channels” (Scientific Reports, 2015)
